According to patent US9861640B2, “Medicament for treatment of Alzheimer's disease” (KEMPHYS LTD., priority 2013, dated 2018):

Columns and labels:
rat primary microglia = test: Clearance of 125I-labeled oligomeric Aβ1-42 by rat primary microglia; type: cell-based; conditions: 5 μM each 48 h, then 6 h with 125I-o-Aβ1-42 1 μg/ml, vs vehicle-treated cells
Source text: Primary microglia (type 1) were harvested from primary mixed glial cell cultures prepared from neonatal Wistar rat pups, as previously reported. Mouse microglial cell line MG5 and mouse glial cell line A1 were maintained as previously described. Mouse neuroblastoma cell line N1E-115 and Neuro 2a (American Type Culture Collection, Manassas, Va., USA) were maintained in Dulbecco's modified Eagle's medium (DMEM) supplemented with 10% fetal bovine serum (FBS), 20 U/ml penicillin (Invitrogen, Gaithersburg, Md., USA), and 20 μg/ml streptomycin (Invitrogen). Primary rat microglia were treated with Am80 (5 μM) and/or HX630 (5 μM) in the presence and absence of GW9662 (10 μM) for 48 h in Eagle's MEM supplemented with 10% FBS and 0.2% glucose. MG5 cells and A1 cells were treated with Am80 (5 μM) and/or HX630 (5 μM) for 48 h in DMEM containing 10% FBS. N1E-115 cells were treated with Am80 (5 μM) and/or HX630 (5 μM) for 5 days in DMEM containing 2% FBS.
^125I-Labeled oligomeric Aβ1-42 (o-Aβ1-42) was prepared as described. Cells were cultured in 24-well plates for 48 h in Eagle's MEM supplemented with 10% FBS in the presence or absence of Am80 (5 μM) and HX630 (5 μM). After the 48-h treatment, the cells were washed twice with labeling medium (DMEM containing 3% BSA) and then incubated with ^125I-labeled o-Aβ1-42 for 6 h at 37° C. Following the 6-h incubation, medium was removed from each well, and soluble radioactivity in TCA (degraded and extracellularly released peptide fragments) was determined as an index of Aβ degradation in the medium as described previously. The Aβ degradation activity may thus include both receptor-mediated phagocytic activity and extracellular protease-mediated degradation. Cells were washed three times with PBS, then lysed with 0.4 ml of 0.1 M NaOH for 30 min at 37° C., and cell-associated (including cell-incorporated) radioactivity and cell proteins were determined with an autogamma counter and the BCA Protein Assay Reagent (Pierce), respectively. We could not determine the activity of IDE-dependent degradation in this medium, because the incubation medium was replaced with labeling medium prior to incubation with ^[…].

Ide mRNA = test: Quantitative RT-PCR of Ide mRNA in brains of APP23 mice; type: in vivo, mouse; conditions: day 18, vs vehicle, Am80/HX630 P<0.05, HX630 P=0.062 (not significant)
Procedure: APP23 mice begin forming amyloid deposits when they are 6 months old, but memory deficits in the MWM test appear quite early (before 3 months of age). Here, we used 8.5-month-old male APP23 mice and their WT littermates (C57BL/6J). We used stratified random sampling to divide mice (four to six per cage) into four groups to equalize the mean body weight of the study groups: mice given 0.5 mg/kg/d Am80, those given 5 mg/kg/d HX630, those given the mixture of 0.5 mg/kg/d Am80 and 5 mg/kg/d HX630, and those given the vehicle. Am80 and HX630 were suspended in 0.5% (w/v) carboxymethylcellulose solution and were orally administered to mice at 0.5 mg/kg (Am80) or 5 mg/kg (HX630) for 17 consecutive days (once daily at 18:00). Control animals received the same volume of 0.5% (w/v) carboxymethylcellulose solution orally, without the other compounds. We set the 0.5 mg/kg/d dose for Am80 on the basis that this had been found effective in other in vivo studies, such as those by Kawahara et al. and Ishido and Shudo [37]. […]
Total RNA from the cerebral hemispheres, hippocampus, or MG5 cells was prepared by guanidinium thiocyanate-phenol-chloroform extraction. […] Quantitative real-time PCRs were carried out by using the LightCycler 1.5 system (Roche, Mannheim, Germany) with the FastStart DNA Master SYBR Green I LightCycler kit (Roche). […]

CN1c2ccccc2N=C(c2ccc(C(=O)O)cc2)c2cc3c(cc21)C(C)(C)CCC3(C)C [HX630, 4-[5H-2,3-(2,5dimethyl-2,5-hexano)-5-methyldibenzo[b,e]-diazepin-11-yl]benzoic acid]
degradation activity towards 125I-labeled oligomeric Aβ1-42 (rat primary microglia): increased | Ide mRNA level in brain (Ide mRNA): slight increase
